Measurements published in patent publication US10696951B2, “Method for culturing pluripotent stem cells” (JTEC Corporation, priority 2014, dated 2020).

Test system: 253G1 cells
Test: Rotary culture of 253G1 cells with RWV bioreactor in 10 mL vessel: spheroid formation and proliferation rate
Format: cell-based, human
Conditions: for Proliferation rate: 5 days, detached with 5 mM EDTA and TrypLE Select
Protocol: To perform three-dimensional culture, 253G1 cells to be seeded were detached into small spheroids (loose cell masses each having a diameter of approximately 50 μm to 200 μm) each consisting of 20 to 40 cells with 5 mM EDTA. The detached 4.9×10^5 253G cells (small spheroids obtained through chemical disrupting) were seeded in an mTeSR1 medium (10 mL) containing the ROCK (Rho-associated kinase) inhibitor Y27632 (Wako Pure Chemical Industries, Ltd., 10 μM) or an mTeSR1 medium (10 mL) free of the ROCK inhibitor Y27632 in a 10 mL RWV vessel (diameter: 5 cm; Synthecon, Incorporated), and rotary-cultured with an RWV bioreactor (Synthecon, Incorporated) at 37° C. and 8 rpm for 3 days. After culturing, a photograph of a phase contrast image of spherical spheroids produced in the culture medium was taken with the inverted microscope Axio Observer (Carl Zeiss) (FIG. 1). In addition, the diameter of each spherical spheroid was measured, and the size distribution was investigated (FIG. 2).
Subsequently, the spherical spheroids were collected, and disrupted by pipetting with a pipette to disperse the cells. The number of the cells was counted by using the automated cell counter, Countess™ (Invitrogen). From the total number of the cells in the culture medium, the proliferation rate relative to the number of the cells seeded (4.9×10^5 cells) was calculated (total number of cells/4.9×10^5 cells).
To determine a more suitable ROCK inhibitor concentration, 253G1 cells were rotary-cultured for 3 days under the same conditions as in the above except that three ROCK inhibitor concentrations (3 μM, 10 μM, or 30 μM) were used. After culturing, the number of spherical spheroids formed was 10 in the case of 3 μM, 50 in the case of 10 μM, and 20 in the case of 30 μM.
To determine a more suitable number of cells to be seeded, 253G1 cells detached into small spheroids each consisting of approximately 20 to 40 cells with 5 mM EDTA and TrypLE™ Select were seeded at 4.27×10^5, 8.55×10^5, or 1.28×10^6 cells in a 10 mL RWV vessel, and rotary-cultured for 5 days in an mTeSR1 medium containing or free of the ROCK inhibitor Y27632 (10 μM) by the same method as in the above (1). After culturing, the number of the cells was counted and the proliferation rate was calculated in the same manner as in the above.
Further, the 253G1 cells detached into small spheroids each consisting of approximately 20 to 40 cells with only 5 mM EDTA were seeded in a 10 mL RWV vessel at a number of cells seeded in the above preferred range, and rotary-cultured in a 10 μM ROCK inhibitor Y27632-containing mTeSR1 medium (10 mL) for 3 days.

[1] = 10 μM in mTeSR1, 4.9×10^5 cells seeded, 10 mL RWV vessel, 8 rpm, 3 days, detached with 5 mM EDTA
[2] = 1st run, 10 μM, 4.9 × 10^5 cells seeded, 10 mL vessel, 3 days, only 5 mM EDTA
[3] = 2nd run, 10 μM, 4.1 × 10^5 cells seeded, 10 mL vessel, 3 days, only 5 mM EDTA

C[C@@H](N)[C@H]1CC[C@H](C(=O)Nc2ccncc2)CC1.Cl.Cl.O (relative stereo) [Y27632, (R)-(+)-trans-N-(4-pyridyl)-4-(1-aminoethyl)-cyclohexanecarboxamide.2HClH2O] was tested. Which “Number of spherical spheroids formed” value (3 μM, 10 mL vessel, 3 days) did it give?
The value was 10.

What about the “Proliferation rate (total number of cells / cells seeded)” value [1] of the same molecule?
Its value is 6.5 fold.

What about the “Total number of cells” value [1] of the same molecule?
The value was 3.1 × 10^6 cells.

And the “Total number of cells” value (10 μM in mTeSR1, 4.9×10^5 cells seeded, 10 mL RWV vessel, 8 rpm, 3 days, detached with 5 mM EDTA, listed as ROCK inhibitor)?
The value was 3.1×10^6 cells.

And the Proliferation rate (10 μM, 1.28 × 10^6 cells seeded/10 mL vessel)?
The Proliferation rate was 1.43-fold.

And the Proliferation rate (10 μM, 4.27 × 10^5 cells seeded/10 mL vessel)?
The Proliferation rate was 4.78-fold.

And the “Formation of spherical spheroids” value (10 μM, 4.9×10^5 cells seeded, 10 mL vessel, 3 days, inhibitor-free medium gave no spheroids)?
Its value is “numerous spherical spheroids were formed”.

And the Proliferation rate (10 μM, 8.55 × 10^5 cells seeded/10 mL vessel)?
The Proliferation rate was 1.93-fold.

And the “Number of spherical spheroids formed” value (10 μM, 10 mL vessel, 3 days)?
Its value is 50.

What about the “Proliferation rate versus ROCK inhibitor-free medium” value (10 μM, 10 mL vessel, experiment repeated a plurality of times) of the same molecule?
The value was “significantly increased”.

What about the “Number of spherical spheroids formed” value (30 μM, 10 mL vessel, 3 days) of the same molecule?
Its value is 20.

What about the “Number of only cells of spheroids” value [2] of the same molecule?
Its value is 2.4 × 10^6 cells.

What about the Number of spheroids [2] of the same molecule?
The Number of spheroids was “approximately 130 spheroids”.

And the “Proliferation rate of only cells of spheroids” value [2]?
Its value is 4.9 fold.

What about the “Number of only cells of spheroids” value [3] of the same molecule?
The value was 1.4 × 10^6 cells.

And the Number of spheroids [3]?
The Number of spheroids was “approximately 100 spheroids”.

What about the “Proliferation rate (total number of cells)” value [3] of the same molecule?
Its value is 5.85 fold.

And the “Proliferation rate of only cells of spheroids” value [3]?
The value was 3.41 fold.

And the “Total number of cells” value [3]?
Its value is 2.4 × 10^6 cells.
